From US9464062B2, “Disubstituted oxazolidin-2-ones 5-hydroxytryptamine receptor 2B activity modulators” (TEMPLE UNIVERSITY—OF THE COMMONWEALTH SYSTEM OF HIGHER …, priority 2012, dated 2016)

Molecular target: 5HT2B receptors (Homo sapiens (Human), UniProt P41595)
Assay: Radiolabel Binding Studies for Serotonin 5HT2B receptors, method 1 ([3H]LSD competition)
Conditions: for IC50: [3H]LSD radioligand; for inhibition at 10 µM: single concentration 10 uM, inhibition of [3H]LSD binding, read-out: 5-HT2B % inhib @10 uM
Method: A solution of the compound of the disclosure to be tested is prepared as a 1-mg/ml stock in Assay Buffer (50 mM Tris-HCl, 10 mM MgCl2, 1 mM EDTA, pH 7.4) or DMSO according to its solubility. A 1-mg/ml stock of the reference compound 5-hydroxytryptamine (5-HT) is also prepared as a positive control. Eleven dilutions (5× assay concentration) of the compound of the disclosure and 5-HT are prepared in the Assay Buffer by serial dilution to yield final corresponding assay concentrations ranging from […].
A stock concentration of 5 nM [^3H]LSD (lysergic acid diethyl amide) is prepared in Assay Buffer. Aliquots (50 μl) of radioligand are dispensed into the wells of a 96-well plate containing 100 μl of Assay Buffer. Duplicate 50-μl aliquots of the compound of the disclosure test and 5-HT positive control reference compound serial dilutions are added.
Membrane fractions of cells expressing recombinant 5HT2B receptors (50 μL) are dispensed into each well. The membranes are prepared from stably transfected c ell lines expressing 5HT2B receptors cultured on 10-cm plates by harvesting PBS-rinsed monolayers, resuspending and lysing the monolayers in chilled, hypotonic 50 mM Tris-HCl, pH 7.4, centrifuging at 20,000×g, decanting the supernatant and storing at −80° C. The membrane preparations are resuspended in 3 ml of chilled Assay Buffer and homogenized by several passages through a 26 gauge needle before use in the assay.
The 250-μl reactions are incubated at room temperature for 1.5 hours, then harvested by rapid filtration onto 0.3% polyethyleneimine-treated, 96-well filter mats using a 96-well Filtermate harvester. Four rapid 500-μl washes are performed with chilled Assay Buffer to reduce non-specific binding. The filter mats are dried, then scintillant is added to the filters and the radioactivity retained on the filters is counted in a scintillation counter.
Raw data (dpm) representing total radioligand binding (i.e., specific+non-specific binding) are plotted as a function of the logarithm of the molar concentration of the competitor (i.e., test or reference compound). Non-linear regression of the normalized (i.e., percent radioligand binding compared to that observed in the absence of test or reference compound) raw data is performed in […] (GraphPad Software, Inc.) using the built-in three parameter logistic model describing ligand competition binding to radioligand-labeled sites: y=bottom+[(top−bottom)/(1+[…])] where “bottom” is the residual radioligand binding measured in the presence of 10 μM reference compound (i.e., non-specific binding) and “top” is the total radioligand binding observed in the absence of competitor. The log IC50 (i.e., the log of the ligand concentration that reduces radioligand binding by 50%) is thus estimated from the data and used to obtain the Ki by applying the Cheng-Prusoff approximation: Ki=IC50/(1+[ligand]/KD) where “[ligand]” is the assay radioligand concentration and “KD” is the affinity constant of the radioligand for the target receptor.
Compounds of the disclosure are also screened at a single concentration of 10 μM using the same method described for the Radiolabel Binding Studies for Serotonin 5HT2B receptors, method 1 to determine the percent inhibition of [^3H]LSD binding.

Chain of 5HT2B receptors (P41595 whole entry): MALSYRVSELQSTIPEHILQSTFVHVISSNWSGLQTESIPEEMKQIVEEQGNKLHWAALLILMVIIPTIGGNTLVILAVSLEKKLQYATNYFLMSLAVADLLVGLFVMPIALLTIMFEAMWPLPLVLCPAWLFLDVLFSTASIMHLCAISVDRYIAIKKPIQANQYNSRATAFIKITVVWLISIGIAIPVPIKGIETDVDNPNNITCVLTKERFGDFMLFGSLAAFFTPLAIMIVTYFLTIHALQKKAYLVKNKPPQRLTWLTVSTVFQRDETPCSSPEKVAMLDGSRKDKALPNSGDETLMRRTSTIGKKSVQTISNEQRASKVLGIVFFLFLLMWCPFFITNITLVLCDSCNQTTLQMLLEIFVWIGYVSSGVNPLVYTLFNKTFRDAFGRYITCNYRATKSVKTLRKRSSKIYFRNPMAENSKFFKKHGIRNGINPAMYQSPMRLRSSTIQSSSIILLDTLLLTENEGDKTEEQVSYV

Row | IC50 [nM] | inhibition at 10 µM [%] | SMILES
1 | 298 | 87.6 | O=C1OC(CN2CCN(C(c3ccccc3)c3ccccc3)CC2)CN1C1CC1 (stereo not shown) [Entry 7]
2 | 190 | 87.3 | O=C1OC(CN2CCN(C(c3ccccc3)c3ccccc3)CC2)CN1C1CCC1 (stereo not shown) [Entry 4]

Second part, the compound before the results:

Row | SMILES | IC50 [nM] | inhibition at 10 µM [%]
3 | CC(C)(C)N1CC(CN2CCN(C(c3ccccc3)c3ccccc3)CC2)OC1=O (stereo not shown) [Entry 6] | 1870 | 59.3
4 | C=CCN1CC(CN2CCN(C(c3ccccc3)c3ccccc3)CC2)OC1=O (stereo not shown) [Entry 1] | 126 | 91.1
5 | CC(C)N1CC(CN2CCN(C(c3ccccc3)c3ccccc3)CC2)OC1=O (stereo not shown) [Entry 3] | 274 | 84.9
6 | O=C1OC(CN2CCN(C(c3ccccc3)c3ccccc3)CC2)CN1C1CCCC1 (stereo not shown) [Entry 5] | 41 | 94.1
7 | O=C1OC(CN2CCN(C(c3ccccc3)c3ccccc3)CC2)CN1C1CCCCC1 (stereo not shown) [Entry 2] | – | 91.4
